Data from US11266645B2, “Methods for treating lymphoma” (Alexion Pharmaceuticals, Inc., priority 2018, dated 2022).
Several values for one entry are separate records, joined by “and”; a condition that tells them apart may be missing. Equal entries are not always repeated.

What was measured:
[1] = Cerdulatinib plasma concentration in patients (LC-MS/MS); type: in vivo, human
Description: Blood samples were collected on K2EDTA for the determination of total cerdulatinib plasma concentrations on day 1 prior to dosing and at 0.5, 1, 2, 3, 4, 6, 8, and 12 hours post-dose; on Day 8 at pre-dose and 2 hours post-dose; on Day 15 pre-dose; and on Day 28 (end of the first treatment cycle) at pre-dose and at 0.5, 1, 2, 3, 4, 6, 8, and 12 hours post-dose. A liquid chromatography-tandem mass spectrometry (LC-MS/MS) method was developed and validated by Alturas Analytics, Inc. (Moscow, Id.) for the determination of cerdulatinib concentration in human plasma. […] J Pharmacol Exp Ther, 2014. 351(3): p. 538-48. Chromatographic separations were performed over a Phenomenex Synergi Polar-RP column (50×2.0 mm, 4 μm) (Phenomenex, Torrance, Calif., USA). MS/MS analysis was performed using a Sciex API-4000 triple quadrupole mass spectrometer with a TurboSpray ion source (Applied Biosystems, Foster City, Calif., USA). The peak area of the m/z 394→360 cerdulatinib product ion was measured against the peak area of the m/z 397→363 internal standard product ion. Intra-assay precision (% CV) and accuracy (% bias) were within 0.8% to 4.5% and −10.1% to 7.8%, respectively, and inter-assay precision (% CV) and accuracy (% bias) were 2.0% to 3.8% and −7.3% to 6.0%, respectively.

[2] = tested on: PMA-mediated B cell pERK Y204; experiment: PMA-mediated B cell pERK Y204; type: cell-based, human; settings: patient samples
Description: The potency and selectivity for target inhibition following oral dosing in patients using a variety of whole blood assays was measured.

[3] = tested on: patients with relapsed/refractory (r/r) B- and T-cell lymphoma; experiment: Phase 2 study of cerdulatinib 30 mg BID in relapsed/refractory B- and T-cell lymphoma (Example 2); type: in vivo, human
Description: This study intended to confirm the safety and efficacy of cerdulatinib dosed 30 mg orally BID in patients with relapsed/refractory (r/r) B- and T-cell lymphoma. Dose reductions were permitted to a minimum of 15 mg BID. Response was assessed by Lugano Classification criteria.
Ninety nine patients enrolled (FL: 36, CLL/SLL: 28, PTCL: 18, marginal zone lymphoma: 8, aggressive: 5, Waldenstrom's macroglobulinemia: 4) (Table 4). Median age is 68 (42-93) and median # of prior therapies is 3 (1-13) (Table 5). 30 patients had prior BTK, PI3K or BCL-2 inhibitor therapy. The most common AEs of any grade are diarrhea (42%), fatigue (36%), and nausea (32%). Grade 3+ AEs occurring in ≥5% patients are neutropenia (18%), lipase increase (15%), pneumonia (12%), diarrhea (10%), and fatigue (7%). 5 patients have had Grade 5 infections considered related to study drug (3 of 5 in the CLL cohort). The target PK range has been achieved with an average SSCmin of ˜0.8 μM.

CCS(=O)(=O)N1CCN(c2ccc(Nc3ncc(C(N)=O)c(NC4CC4)n3)cc2)CC1 [cerdulatinib, 4-(cyclopropylamino)-2-((4-(4-(ethylsulfonyl)piperazin-1-yl)phenyl)amino)pyrimidine-5-carboxamide]
SSCmin achieved ([1]; CLL/SLL patients, lower dose cohorts): 0.004 to 0.325 µM
SSCmin exposures at which tumor responses were more apparent ([1]; FL patients): 0.729 to 1.219 µM
SSCmin to SSCmax cerdulatinib serum concentrations ([1]; human, in vivo): 0.32 to 0.38 µM
SSCmin that was well tolerated ([1]; phase 1 dose-escalation): up to 1 μM
average SSCmin ([1]; phase 2 dose 30 mg BID): ~0.8 µM
inhibition of PMA-mediated B cell pERK Y204 [2]: No inhibition
duration of durable PR ([3]; CLL patient relapsed on BTK inhibitor): ≥ 5 months
CR (%) ([3]; CLL/SLL): (4) %
CR, number of patients ([3]; CLL/SLL): 1
PD (%) ([3]; CLL/SLL): (4) %
PD, number of patients ([3]; CLL/SLL): 1
PR (%) ([3]; CLL/SLL): (57) %
PR, number of patients ([3]; CLL/SLL): 16
ORR ([3]; CLL/SLL, N 28): 61%
CR, number of patients ([3]; DLBCL, tFL, and MCL): 0
PD (%) ([3]; DLBCL, tFL, and MCL): 60%
PD, number of patients ([3]; DLBCL, tFL, and MCL): 3
PR (%) ([3]; DLBCL, tFL, and MCL): 20%
PR, number of patients ([3]; DLBCL, tFL, and MCL): 1
ORR ([3]; DLBCL, tFL, and MCL, N 5): 20%
CR (%) ([3]; FL): (10) %
CR, number of patients ([3]; FL): 3
PD (%) ([3]; FL): (10) %
PD, number of patients ([3]; FL): 3
PR (%) ([3]; FL): (39) %
PR, number of patients ([3]; FL): 12
duration of durable PR ([3]; FL patient relapsed on BTK inhibitor): 12 months
ORR ([3]; FL, N 31): 49%
CR, number of patients ([3]; Other Indolent Lymphoma): 0
PD (%) ([3]; Other Indolent Lymphoma): 33%
PD, number of patients ([3]; Other Indolent Lymphoma): 4
PR (%) ([3]; Other Indolent Lymphoma): 42%
PR, number of patients ([3]; Other Indolent Lymphoma): 5
ORR ([3]; Other Indolent Lymphoma, N 12): 42%
CR (%) ([3]; PTCL): 33%
PD (%) ([3]; PTCL): 33%
PD, number of patients ([3]; PTCL): 5
PR (%) ([3]; PTCL): 13%
PR, number of patients ([3]; PTCL): 2
study drug-related Serious Adverse Events (SAEs), number ([3]; PTCL (n=16), Grade 3 to 4): 4
duration of durable PR ([3]; PTCL patient relapsed on tenalisib): ≥ 3 months
AEs of any grade: diarrhea ([3]; PTCL patients): 33%
AEs of any grade: fatigue ([3]; PTCL patients): 22%
AEs of any grade: lipase increase ([3]; PTCL patients): 17%
AEs of any grade: nausea ([3]; PTCL patients): 17%
Grade 3+ AEs: diarrhea, number of patients ([3]; PTCL patients): 3
Grade 3+ AEs: lipase increase, number of patients ([3]; PTCL patients): 2
Grade 3+ AEs: neutropenia, number of patients ([3]; PTCL patients): 4
Grade 3+ AEs: pneumonia, number of patients ([3]; PTCL patients): 2
deaths or discontinuations due to Treatment Emergent Adverse Events ([3]; PTCL patients (n=16)): no deaths or discontinuations
CR, number of patients ([3]; PTCL, 15 evaluable): 5
ORR ([3]; PTCL, N 15, 30 mg BID): 47%
duration of durable PR ([3]; SLL patient relapsed on venetoclax): ≥ 18 months
duration of durable PR ([3]; WM patient relapsed on BTK inhibitor): ≥ 7 months
AEs of any grade: diarrhea ([3]; all 99 patients): 42%
AEs of any grade: fatigue ([3]; all 99 patients): 36%
AEs of any grade: nausea ([3]; all 99 patients): 32%
Grade 3+ AEs: diarrhea ([3]; all 99 patients): 10%
Grade 3+ AEs: fatigue ([3]; all 99 patients): 7%
Grade 3+ AEs: lipase increase ([3]; all 99 patients): 15%
Grade 3+ AEs: neutropenia ([3]; all 99 patients): 18%
Grade 3+ AEs: pneumonia ([3]; all 99 patients): 12%
patients with Grade 5 infections considered related to study drug ([3]; all 99 patients, 3 of 5 in the CLL cohort): 5 patients
time on treatment of PTCL patients with CR still on drug ([3]; first (two) responding PTCL patients): 11 months and 12 months and 8 months
response durations ([3]; first two PTCL patients achieving a response (both CRs)): 10 months and 6 months
Toxicities ≥ Grade 3: Asthenia/Fatigue ([3]; r/r PTCL, N = 16): 6.3%
Toxicities ≥ Grade 3: Diarrhea/Colitis ([3]; r/r PTCL, N = 16): 6.3%
Toxicities ≥ Grade 3: Infection ([3]; r/r PTCL, N = 16): 18.8%
Toxicities ≥ Grade 3: Neutropenia ([3]; r/r PTCL, N = 16): 6.3%
